The record followed here is patent US20060241067A1, “Methods For inhibiting angiogenesis, cell migration, cell adhesion, and cell survival” (priority 2002, published 2006).

Where two headings read alike, the source gives them in different places. Where a SMILES comes first, the peptide text is derived from it. Where no end group is shown, it is not given here. The star is where a group is joined. Cbz = O=C(OCc1ccccc1)*; CH2F = FC*

In assay [1] the test system is Human umbilical vein endothelial cells (HUVEC). The assay can be described thus: Endothelial cell migration assay (transwell) on ECM substrates. The settings on record: for endothelial cell migration on vitronectin: 1 μM peptide. The class given is cell-based. The protocol:
Human umbilical vein endothelial cells (HUVEC) were grown in Endothelial Growth Medium (containing 2% fetal bovine serum, bFGF and VEGF) (Clonetics, San Diego, Calif.). To render HUVECs quiescent for Rac and/or Rho assays, monolayers of endothelial cells were incubated for 18 hrs in Endothelial Basal Medium supplemented with 0.1% serum (Clonetics). Cell migration and adhesion assays on ECM substrates were performed as previously described in Kim et al. (S. Kim et al., Amer. J. Biol. Chem., 275:33920-33928 (2000); and S. Kim et al., Amer. J. Path., 156:1345-1362 (2000)).
Migration assays were performed essentially as described (Kim, et. al., 2000). […] HUVECS (25,000) were added to the upper chamber of inserts in migration buffer (Hepes buffered M199 medium containing 1% BSA, 2 mM MgCl2, 2 mM CaCl2 and 0.2 mM MnCl2) containing 25 μg/ml of various antibodies. In some experiments, 250 μM dibutyryl cAMP was placed in the upper and lower chambers of the transwell. Cells were allowed to migrate from the upper to the lower chamber for four hours at 37° C. The number of cells which had migrated were counted in three representative high power (200×) fields per insert. The data are presented as number of cells migrating+/−standard error of the mean. Migration assays were similarly performed on transfected cells. In this case, migrated transfected cells were identified by fluorescent microscopy and counted.

For assay [2], the system named is chick chorioallantoic membrane (CAM). The experiment in a line: Chick chorioallantoic membrane (CAM) angiogenesis assay. The format is in vivo, chicken. Particulars: for effect on inhibition of angiogenesis by anti-αvβ3: 500 μM caspase inhibitors; for effect on inhibition of angiogenesis by anti-α5β1: 500 μM caspase inhibitors or 4 μg plasmid; for angiogenesis (blood vessel branch points, vessel density): 1 μM peptide.

The test system is the same in assay [3]. The experiment in a line: Apoptosis markers in CAM blood vessels in vivo (Annexin V, cleaved caspases, TUNEL, DNA gels). Details: species or system chicken. The settings on record: for caspase activity in vivo (cleaved caspase immunoblot): CAMs treated with anti-α5β1 and caspase inhibitor; for effect on endothelial cell DNA fragmentation induced by α5β1 inhibition in vivo: TUNEL staining of CAM cryosections. The protocol:
CAM assays were performed as described (Kim et al. (2000) Am. J. Path. 156:1345-1362). Saline or bFGF stimulated CAMs were treated for 24 h with 20 μg anti-α5β1, anti-αvβ3 or control antibodies and then injected intravenously with 50 μl Annexin V-FITC. CAMs were harvested after 2 h, then analyzed by confocal microscopy. Alternatively, CAMs treated as above were excised, minced on ice, and treated with 0.1% dispase/0.1% collagenase for 1 h at 37° C. Single cell suspensions were incubated with FITC-Annexin V and analyzed as described above. bFGF stimulated CAMs were also treated with anti-α5β1 or anti-αvβ3 in the presence or absence of 500 μM caspase-3, -8 or -9 inhibitors. bFGF stimulated CAMs were also transfected with 4 μg N1-GFP, dnPKA or PKAcat expression plasmids. Freshly excised CAMs were homogenized in ice cold RIPA buffer containing protease inhibitors and immunoblotted to detect intact and cleaved caspase 3 or 8. For all treatment groups, n=10. CAMs were fixed with 3.7% paraformaldehyde prior to excision. The average number of blood vessel branch points per treatment group+/−SEM is presented. Some excised CAMs were cryopreserved, cut into 5 μm sections, immunostained with anti-cleaved caspase 3, anti-cleaved caspase 8 and anti-VFW antibodies (to detect blood vessels). CAMs were also stained by the TUNEL method to detect fragmented DNA.

Assay [4] deals with HUVECS. The assay can be described thus: Annexin V-FITC staining of HUVECs (apoptosis). The format is cell-based, human. On the procedure: Plates were also coated with […] goat anti-mouse IgG (Southern Biotechnology Associates, Inc., Birmingham, Ala.) at 37° C. for 2 h, rinsed, blocked with denatured BSA, and then incubated with […] anti-a5b1 or control IgG (anti-MHC) at 4° C. for 16 hrs. HUVECs were incubated on plates in the presence or absence of 10 mg/ml anti-α5β1, -αvβ3, -α2β1, or -MHC for 0-24 hrs. In some experiments, HUVECs were incubated with antibodies and […] caspase-3, -8 or -9 inhibitors or vehicle control (0.5% DMSO). Cells were then incubated with Annexin V-FITC for 15 min at room temperature in the dark. Washed cells were fixed in 1% paraformaldehyde, then incubated in DAPI. The percentage of Annexin positive cells in 5 microscopic fields was determined at 200× magnification by fluorescence microscopy.
(§1) HUVECs were plated for 24 h on ECM protein-coated plates in the presence of anti-αvβ3 or anti-α5β1, 1 μM HA1004 (a PKA inhibitor), and anti-αvβ3 or anti-α5β1 with 1 μM HA1004. Cells were stained with FITC-Annexin V or immunoblotted with anti-cleaved caspase 3 antibodies as described above. 5×10^6 HUVECs were electroporated in 300 μl of EGM with 30 μg of DNA (20 μg dnPKA or PKAcat plasmids, 2 μg N1-GFP and 8 μg pBluescript) at 300 V, 450 μF as previously described (Dormond et al. (2001) Nature Med. 7,1041-7). Expression of transgenes was determined by Western blotting of cell lysates with anti-V5 and anti-GFP antibodies. Transfection efficiency was quantified by determining the percent of cells that were co-transfected with GFP-expression vectors. Eighty-percent transfection efficiency was generally achieved using this electroporation method.

Assay [5] concerns HUVECS. The assay can be described thus: Apoptosis assays in HUVECs (PARP and caspase immunoblots, caspase activity, DNA fragmentation). The format is cell-based, human. The protocol:
In some embodiments, HUVECs were incubated on ECM or antibody coated plates for 0-24 hrs. DNA fragmentation was detected by agarose gel electrophoresis as described in M. Herrmann et al. (See, M. Herrmann et al., Nucleic Acids Res., 22:5506-5507 (1994)). Alternatively, HUVECS on plates were lyzed with RIPA buffer (See, S. Kim et al., J. Biol. Chem., 275:33920-33928 (2000)) on ice. Lysates were electrophoresed on 8% SDS-PAGE gels and immunoblotted with anti-PARP, -caspase-3, -caspase-9, -cleaved caspase 3, or -cleaved caspase-9 antibodies. Immunoreactive bands were identified by chemiluminescence and quantified by densitometry. Caspase 3 and 8 activities were determined in cell lysates according to manufacturer's instructions (Calbiochem, La Jolla, Calif.).
as §1
For orientation: Immunoblotting shows a protein as a band on a membrane.

The subject of the next assay is protein kinase A. The assay can be described thus: PKA activity assay in HUVECs. The format is cell-based, human. On the procedure: PKA activity was measured in HUVECs essentially as previously described in Kim et al (S. Kim et al., Amer. J. Biol. Chem., 275:33920-33928 (02000)). HUVECs were placed in suspension, allowed to attach to ECM protein coated plates in the absence or presence of anti-integrin antibodies or were treated with 10 μM PTHrP and/or 250 μM cAMP. PKA activity was measured at various times from 0-4 hrs (e.g., 2-30 min).
Plates were washed and blocked in 3% bovine serum albumin for 1 hour at 37° C. HUVECS were trypsinized and resuspended in adhesion buffer (Hanks balanced salt solution supplemented with 10 mM HEPES, pH 7.4, 2 mM MgCl2, 2 mM CaCl2, 0.2 mM MnCl2, 1% BSA. Cells were plated on matrix protein coated plates in culture medium or in the presence of 25 μg/ml anti-α5β1, anti-αvβ3 or anti-α2β1 antibodies for various times from 0 minutes to 4 hours. Plates were washed with phosphate buffered saline and cells were extracted with cold extraction buffer (50 mM Tris, pH 7.5, 5 mM EDTA, 25 μg/ml aprotinin and 25 μg/ml leupeptin). Protein Kinase A activity was assessed using a kit from Gibco BRL. Briefly, equal volumes of lysate and reaction mixture containing final concentrations of 50 mM Tris, pH 7.5, 10 mM MgCl2, 0.25 mg/ml BSA, 50 μM Kemptide (a protein kinase A substrate), 3000 Ci/mmol (γ^32 P) ATP and 100 μM ATP were combined for 5 minutes at 30° C. Total PKA in each sample was measured by performing the assay in the presence of 10 μM cAMP. Background PKA activity in test and total PKA samples were determined by performing the assay in the presence of a PKA inhibitor peptide, PKI (6-22) amide. Twenty μl samples of reaction mixtures were spotted onto phosphocellulose discs and washed repeatedly with 1% (v/v) phosphoric acid in water. Incorporated radioactivity was determined by scintillation counting. Activated PKA was calculated from the ratio of pmol/min test sample PKA to pmol/min total PKA. PKA activity in triplicate samples was measured and experiments were repeated at least three times.
In another embodiment, PKA assays were performed with a kit from Calbiochem (San Diego, Calif.). Cell lysates were incubated in ELISA plates coated with a PKA peptide substrate, then incubated with anti-phosphoserine antibodies. Bound antibody was detected after incubation with anti-rabbit IgG-horse radish peroxidase. Statistical analyses were performed using Student's t-test.

The subject of assay [6] is DU145 prostate carcinoma tumors. The experiment in a line: DU145 tumor assay in nude mice. The format is in vivo. Particulars: daily intravenous injections, ten days.

On to “PTHrP 15-34: PTHrP fragment, amino acids 15-34 (IQDLRRRFFLHHLIAEIHTA)”, for which the “endothelial cell migration on vitronectin” value (“endothelial cell migration” below) in assay [1] is given as “unable to inhibit cell migration”.

In the case of “PTHrP 107-138: PTHrP fragment lacking the N-terminus (TRSAWLDSGVTGSGLEGDHLSDTSTTSLELDS; UniProt P12272 143-174, looked up, fragment)”, the “endothelial cell migration” value in assay [1] is given as “not able to inhibit cell migration”.

Consider `CC[C@H](C)[C@H](NC(=O)OCc1ccccc1)C(=O)N[C@@H](CCC(=O)OC)C(=O)N[C@H](C(=O)N[C@@H](CC(=O)OC)C(=O)CF)[C@@H](C)O` [caspase 8 inhibitors, z-IETD-fmk] (Cbz-IE(OMe)TD(OMe)-CH2F), for which, in assay [2] (bFGF stimulated CAMs), the “effect on inhibition of angiogenesis by anti-αvβ3” value was “partially reversed” and the “effect on inhibition of angiogenesis by anti-α5β1” value was “fully reversed”. Besides, in assay [3], the “caspase activity in vivo (cleaved caspase immunoblot)” value is recorded as “completely blocked its activity in vivo” and the “effect on endothelial cell DNA fragmentation induced by α5β1 inhibition in vivo” value is reported as “prevented in vivo endothelial cell DNA fragmentation”.

As for “fibronectin: ECM protein used as culture substrate”, the “annexin V binding of HUVECs by culture substrate” value with HUVECS [4] (coated plates, 0-8 h) was “bind little annexin V”. For the same compound, in the assay with HUVECS [5] (HUVECs on coated plates), the “DNA fragmentation by culture substrate” value was “protects HUVECs from DNA fragmentation” and the “PARP cleavage by culture substrate” value was “showed little PARP cleavage”.

Regarding pertussis toxin, in the assay with protein kinase A (inventors' data, no details given), the PKA activation result is recorded as “inhibits PKA activation”.

As to “calcitonin: a calcium regulating peptide hormone (CGNLSTCMLGTYTQDFNKFHTFPQTAIGVGAP; ends and bridges not checked; cysteine pairing not given here; UniProt P01258 85-116, looked up)”, the “angiogenesis (blood vessel branch points, vessel density)” value in assay [2] (bFGF stimulated CAMs) was “Only PTHrP inhibited angiogenesis”. Besides, in assay [2] (saline-stimulated CAMs), the “pre-existing vessels (number, size, composition)” value is listed as “no effect on the number, size or composition of pre-existing vessels”.

With “H L Q A H S V E D L (HLQAHSVEDL) [scrambled 1-10, scrambled version of PTHrP 1-10, control peptide]”, in assay [1], the “endothelial cell migration” value is recorded as “unable to inhibit cell migration”. Also, the tumor growth result in assay [6] (final serum concentration 1 μM) was “but not a scrambled control peptide, suppressed tumor growth and tumor angiogenesis”. In addition, the “tumor angiogenesis (CD31 vessels)” value in assay [6] is “but not a scrambled control peptide, suppressed tumor growth and tumor angiogenesis”.

Turning to `O=S(=O)(NCCNCC=Cc1ccc(Br)cc1)c1cccc2cnccc12` [H89, N-(2-(p-bromocinnamylamino)ethyl)-5-isoquinoline sulfonamide], the “effect on cAMP-, PKA catalytic subunit- or PTHrP-mediated inhibition of cell migration” value in assay [1] (HUVEC on vitronectin) is “blocked the anti-migratory properties of PTHrP”. In addition, in assay [2] (bFGF stimulated CAMs, 8B12, 480 nM H89 or dnPKA plasmid), the “effect on inhibition of angiogenesis by PTHrP” value is reported as “blocks the suppression of angiogenesis induced by PTHrP 1-34”.

`COC(=O)CC[C@H](NC(=O)[C@H](CC(=O)OC)NC(=O)OCc1ccccc1)C(=O)N[C@H](C(=O)N[C@@H](CC(=O)OC)C(=O)CF)C(C)C` [caspase 3 inhibitors, z-DEVD-fmk]: the “effect on cell death induced by anti-α5β1 antibodies” value in the assay on HUVECS [4] (50 μM caspase inhibitor, cells on fibronectin or vitronectin, 24 h) is reported as “blocked”. In addition, in assay [2] (bFGF stimulated CAMs), the “effect on inhibition of angiogenesis by anti-αvβ3” value is reported as “partially reversed” and the “effect on inhibition of angiogenesis by anti-α5β1” value is “partially reversed”. Moreover, in assay [3], the “caspase activity in vivo (cleaved caspase immunoblot)” value is on record as “partially blocked caspase 3 activity in vivo” and the “effect on endothelial cell DNA fragmentation induced by α5β1 inhibition in vivo” value is “prevented in vivo endothelial cell DNA fragmentation”.

Take `NC(N)=NCCNS(=O)(=O)c1cccc2cnccc12` [HA1004]: the “effect on apoptosis induced by integrin antagonists” value in the assay with HUVECS [4] (PKA inhibition (1 μM HA1004 or dnPKA), 24 h) is “substantially suppressed the apoptosis”. Also, the “effect on caspase 3 cleavage induced by anti-α5β1” value with HUVECS [5] (cells attached to vitronectin) is “blocked caspase 3 cleavage”.

Turning to “PTHrP 1-86: PTHrP fragment containing the N-terminus, amino acids 1-86”, the “endothelial cell migration” value in assay [1] was “inhibited migration”. In assay [2] (bFGF stimulated CAMs), the “angiogenesis (blood vessel branch points, vessel density)” value was “potently inhibited angiogenesis”.

cholera toxin: in the assay on protein kinase A, the PKA activation result was “activates PKA”.
